Test results published in patent US20160228434A1, “TREATMENT OF DISEASES CAUSED BY ABNORMAL LYMPHOCYTE FUNCTION WITH AN HDAC6 INHIBITOR” (priority 2013, published 2016).
“Also recorded” adds a separate entry of the source.

How the values were obtained:
Format in all cases: in vivo
[1] = test system: sera TGF-β and IL-1β; assay: Sera IL-1β and TGF-β levels by ELISA in treated NZB/W mice
Procedure: (§1) NZB/W mice were injected intraperitoneally 5 days/week with the vehicle control (DMSO), ACY-738 treatment at 5 mg/kg (low-dose), or ACY-738 treatment at 20 mg/kg (high-dose) beginning at 22-weeks-of-age until euthanization at 38 weeks-of-age. ACY-738 was received from Acetylon Pharmaceuticals for use in all studies. Proteinuria and weight were measured every 2 weeks and blood was collected every four weeks for sera analysis. Proteinuria was measured by a standard semi-quantitative test using Siemens Uristix dipsticks (Siemens Healthcare, Deerfield, Ill., USA). Results were quantified according to the manufacturer's instructions and scored as follows: dipstick reading of 0 mg/dL=0, trace=1, 30-100 mg/dL=2, 100-300 mg/dL=3, 300-2000 mg/dL=4, and 2000+ mg/dL=5.
IL-1β and TGF-β levels were measured from the sera by ELISA according to the manufacturer's protocol (eBioscience, San Diego, Calif., USA). The plate was read at 450 nm on a microplate spectrophotometer.
IL-1β and TGF-β levels in the sera of NZB/W mice were measured every 4 weeks starting from 22 weeks until euthanization at 38 weeks-of-age (FIG. 8 A-B). At 22 weeks-of-age there were no significant differences in cytokine levels amongst the three groups. As the NZB/W mice aged, sera levels of TGF-β decreased whereas levels of IL-1β increased (FIG. 8 A-B).

[2] = test system: peripheral B cells (IgM+B220+); assay: Peripheral B cells by flow cytometry in treated NZB/W mice; conditions: 38-week-old NZB/W mice, either low (5 mg/kg) or high (20 mg/kg) dose
Procedure: as §1
Blood was collected prior to euthanization using retro-orbital bleeding. RBCs from the peripheral blood were lysed and single cell suspensions were labeled using FITC-conjugated B220 and PerCep710 conjugated IgM anti-mouse mAbs (eBioscience, San Diego, Calif., USA). Mature B cells were identified as IgM^+B220^+ cells. Flow cytometry data was analyzed using FlowJo.
Similarly, a single-cell suspension of peripheral B cells was obtained from the blood of 38-week-old NZB/W mice and stained for IgM and B220. […]

[3] = test system: glomerular IgG and C3 deposition; assay: Glomerular immune complex (IgG, C3) deposition by immunofluorescence in treated NZB/W mice; conditions: for glomerular C3 deposition (score 0-4, fluorescence) / glomerular IgG deposition (score 0-4, fluorescence): vs vehicle control
Procedure: as §1
One half of each kidney was placed in OCT media and snap-frozen in a slurry containing dry ice and 2-methylbutane (Fisher Scientific, Hampton, N.H., USA). Frozen kidney sections were cut into […] sections and stained with goat anti-mouse IgG conjugated to FITC (Pierce) diluted 1:100 or goat anti-mouse C3-FITC (Pierce, Thermo Fisher Scientific, Waltham, Mass., USA) diluted 1:100. Kidney sections were examined by fluorescent microscopy. Sections were scored (0-4) for immune complex deposition by a pathologist in a blinded manner.
5 μM kidney sections were stained with FITC-conjugated C3 or IgG and assessed for fluorescence intensity. (see FIGS. 10A and 10B).

[4] = test system: NZB/W mice; assay: SLE-associated renal pathology (PAS-stained kidney sections, glomerular score) in treated NZB/W mice
Procedure: as §1
At the time of euthanization, the kidneys were removed and cut in half. One half of the kidney from each mouse was fixed in formalin, embedded in paraffin, sectioned, and stained with Periodic acid-Schiff (PAS). Kidney sections were scored (0-4) for glomerular proliferation, inflammation, crescent formation, necrosis, and by a pathologist, Dr. David Caudell, in a blinded manner.
In order to assess renal disease, kidney sections were embedded in paraffin and stained by PAS. […] NZB/W mice treated with DMSO alone had thickened, irregular glomerular basement membranes, increased cellularity, fibrosis and crescent formation (see FIG. 11 A). […] Sections were assessed for glomerular proliferation, inflammation, number of nuclei per glomerulus, crescent formation, and fibrosis by a blinded pathologist, and a glomerular score (0-4) was assigned. NZB/W mice that were treated with the vehicle control alone received an average score of 4 compared to an average score of 2 from mice that received the high-dose of ACY-738 (FIG. 11 C).

[5] = test system: thymic T cells; assay: Thymic T cell development by flow cytometry in treated NZB/W mice; conditions: 16 weeks of treatment
Procedure: as §1
A single-cell suspension was obtained from the thymuses and spleens of treated NZB/W mice at 38 weeks-of-age. Briefly, the thymus was removed from each NZB/W mouse and dissociated across a sterile wire mesh in a petri dish containing ice-cold RPMI 1640 medium (Thermo Scientific). RBCs were lysed using RBC lysis buffer and cells were pelleted and washed with PBS. Splenocytes were stained with APC-conjugated CD3, FITC-conjugated CD4, eFluor450 (eF450)-conjugated CD8a, PerCP-CY5.5-conjugated CD25, and PE-conjugated Foxp3. Thymocytes were stained with APC-CD3, FITC-CD4, and PE-CD8 anti-mouse mAbs (eBioscience, San Diego, Calif., USA). Fluorescence was measured using a FACScan flow cytometer and data was analyzed by FlowJo software.
FIG. 4A depicts representative flow cytometry images of thymocytes gated on CD3 and labeled with CD4 and CD8.

[6] = 16 weeks of treatment, dose not stated

O=C(NO)c1cnc(NC2(c3ccccc3)CC2)nc1 [ACY-738]
sera IL-1β level ([1]; 38-week-old NZB/W mice, low and high dose, levels rise with age): significantly decreased; also recorded: attenuated the increase | sera TGF-β level ([1]; NZB/W mice, 22 to 38 weeks-of-age, 5 and 20 mg/kg, levels fall in vehicle mice with age): reverse this trend in a dose-dependent manner; also recorded: attenuated the reduction | percentage of peripheral B cells (IgM+B220+) [2]: no effect | glomerular C3 deposition (score 0-4, fluorescence) ([3]; 5 mg/kg, 5 mg/kg): slight decrease; also recorded: no significant effect | glomerular IgG deposition (score 0-4, fluorescence) ([3]; 5 mg/kg, 5 mg/kg): slight decrease; also recorded: no significant effect | glomerular C3 deposition (score 0-4, fluorescence) ([3]; 20 mg/kg (high dose), 20 mg/kg): significantly decreased | glomerular IgG deposition (score 0-4, fluorescence) ([3]; 20 mg/kg (high dose), 20 mg/kg): significantly decreased | glomerular C3 deposition level [3, 6]: significantly decreased | glomerular IgG deposition level [3, 6]: significantly decreased | kidney pathology ([4]; 5 mg/kg, PAS-stained sections): did not significantly alter | SLE renal pathology ([4]; 20 mg/kg, PAS-stained sections, lack of fibrosis and crescent bodies): significantly reduced | average glomerular score (0-4) ([4]; high dose (20 mg/kg), vehicle control average score 4): 2 | percentage of DN (CD3+CD4-CD8-) thymic T cells ([5]; NZB/W mice at 38 weeks-of-age, 5 and 20 mg/kg): decreased the percentage of DN T cells in a dose-dependent manner; also recorded: reduced | percentage of CD3+CD4+CD8- single positive thymic T cells ([5]; NZB/W mice at 38 weeks-of-age): substantial decrease | percentage of CD3+CD4-CD8+ single positive thymic T cells ([5]; NZB/W mice at 38 weeks-of-age): substantial decrease | double positive (CD3+CD4+CD8+) thymic T cell numbers ([5]; NZB/W mice, 5 and 20 mg/kg): increased in a dose-dependent manner
